Measured values published in paper PMC10945739, “Exploring Cassia mimosoïdes as a promising natural source of steroids with potent anti-cancer, urease inhibition, and antimicrobial properties” (RSC Advances, 2024).
In brackets after ≈: the same amount, converted by molar mass. Read-outs that look alike come from different tables or passages of the source.

Key:
Alternaria alternata = assay: Antifungal bioassay, poisoned medium technique; assay type: cell-based; details: 168 h, read-out: MIC values against Alternaria alternata
Procedure: (§1) Anti-microbial assays of the isolated componds were performed against the selected strain of fungi i.e., Alternaria alternata, Aspergillus fumigatus, Aspergillus niger, and Penicillium citrii.
(§2) Alternaria alternata, Aspergillus fumigatus, Aspergillus niger, and Penicillium citrii strains were obtained from the Biotechnology lab at COMSATS University Islamabad. The antifungal activity of isolated compounds was assessed using poisoned medium technique. Two percent malt extract agar medium was generated by autoclaving at 121 °C for 30 minutes. Weighed volumes of the compounds were dissolved in […] of sterilized distilled water and put to flasks containing 59.5 mL of malt extract agar medium while they were still molten to obtain final concentrations of 100, 300, 500, 700, 900, and 1000 ppm. The control received the same amount of distilled water. Each sterile Petri plate with a diameter of 90 mm was filled with 20 mL of each medium and allowed to solidify. 5 mm diameter mycelial discs were produced from the tips of 5–7 day-old cultures of the four test fungus species and put in the center of each Petri dish using a sterile cork borer. Every treatment was duplicated three times. Plates were cultured in an incubator at 25 ± 2 °C for seven days. To calculate the rate of fungal growth, the three diameters of each colony were measured at right angles and averaged. Table 2 MIC values (μM) of the isolated compounds against Alternaria alternata, Aspergillus fumigatus, Aspergillus niger, and Penicillium citrii strains.[19]

Aspergillus niger = assay: Antifungal bioassay, poisoned medium technique; assay type: cell-based; details: 168 h, read-out: MIC values against Aspergillus niger
Procedure: as §1, §2

Aspergillus fumigatus = assay: Antifungal bioassay, poisoned medium technique; assay type: cell-based; details: 168 h, read-out: MIC values against Aspergillus fumigatus
Procedure: as §1, §2

Penicillium citrii = assay: Antifungal bioassay, poisoned medium technique; assay type: cell-based; details: 168 h, read-out: MIC values against Penicillium citrii
Procedure: as §1, §2

[1] = test system: human HepG2 hepatic cancer cells; assay: MTT cell viability assay; assay type: cell-based; details: Homo sapiens; for viability at 200 µg: HepG2, 48 h; for IC50: HepG2, calculated using Graph Pad Prism software, read-out: IC50 against HepG2
Procedure: The human liver cells were cultivated in Dulbecco's modified Eagle medium (DMEM) in which 100 U mL^−1 penicillin, 10% fetal bovine and […] streptomycin were added and kept at 37 °C in a […] carbon dioxide induced humidified environment. The human liver cells prepared as per above procedure were then treated with synthesized compounds diluted to 0.05% DMSO concentration.
Using MTT assay, the % viability of cancer cells 36 was evaluated. According to the standard procedure, HepG2 cells were treated with various dosages of synthesized compounds for 48 hours each. The cells were then incubated for 4 hours at 37 °C with 10μ MTT reagent (5 mg mL^−1). Next, in 150 μL DMSO was added to dissolve formazan crystals. The λmax was recorded at 409 nm in a microplate reader (thermos scientific).

Jack bean urease = Jack bean urease (Canavalia ensiformis, UniProt P07374); assay: biochemical; assay type: biochemical; details: for inhibition at 500 µM: pH 6.8, read-out: % Inhibition of urease
Sequence of Jack bean urease (P07374 whole entry, looked up): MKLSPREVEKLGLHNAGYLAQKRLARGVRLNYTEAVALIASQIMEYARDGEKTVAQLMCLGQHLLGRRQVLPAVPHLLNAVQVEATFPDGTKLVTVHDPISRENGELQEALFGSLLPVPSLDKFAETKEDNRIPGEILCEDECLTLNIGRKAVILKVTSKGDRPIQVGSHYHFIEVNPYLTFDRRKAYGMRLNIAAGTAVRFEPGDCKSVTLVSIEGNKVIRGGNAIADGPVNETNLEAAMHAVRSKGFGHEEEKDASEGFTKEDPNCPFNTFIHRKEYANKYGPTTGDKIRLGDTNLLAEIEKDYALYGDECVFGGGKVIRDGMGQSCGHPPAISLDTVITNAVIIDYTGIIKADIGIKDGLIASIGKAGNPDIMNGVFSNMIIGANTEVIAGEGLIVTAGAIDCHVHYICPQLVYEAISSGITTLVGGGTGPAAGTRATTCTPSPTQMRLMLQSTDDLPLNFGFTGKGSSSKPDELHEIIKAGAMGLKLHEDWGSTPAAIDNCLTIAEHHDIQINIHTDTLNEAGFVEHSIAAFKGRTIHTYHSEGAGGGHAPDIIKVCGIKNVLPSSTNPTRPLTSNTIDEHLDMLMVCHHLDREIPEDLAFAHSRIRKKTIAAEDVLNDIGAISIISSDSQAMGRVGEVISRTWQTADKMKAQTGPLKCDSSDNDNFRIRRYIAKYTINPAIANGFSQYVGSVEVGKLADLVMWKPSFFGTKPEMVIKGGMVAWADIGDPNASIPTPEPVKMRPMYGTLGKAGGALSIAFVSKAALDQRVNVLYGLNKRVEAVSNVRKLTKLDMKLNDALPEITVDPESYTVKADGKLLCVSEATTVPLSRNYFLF
Procedure: The inhibition potential of the isolated compounds against urease was investigated using a SpectraMax M2 reader using 96-well microplates.
The kinetic assay involved preparing varying concentrations of both the test compound and the substrate (urea), spanning 0 μM, 5 μM, 10 μM, 15 μM, and 20 μM. The resulting data was utilized to construct a Lineweaver–Burk plot.
In 96-well plates were incubated at 37 °C for 15 min, reaction mixtures consisting of 25 μL of test compounds (each 0.5 mM), 25 μL of enzyme solution (Jack bean urease) and 55 μL of buffers containing 20.79 mM urea. The indophenol method described by Weatherburn[21] was used to determine urease inhibitor activity by measuring ammonia production. Briefly, to each well were added 70 μL of alkaline reagent (0.5% w/v NaOH and 0.1% active chloride, NaOCl) and 45 μL of phenolic reagent (1% w/v phenol and 0.005% w/v sodium nitroprusside). The microplate reader (Molecular Devices, USA) was used to measure the increase in absorbance at 650 nm after 50 min. A final volume of 245 μL was required to perform all reactions in a triplicate. The results (absorbance change per minute) were processed using SoftMax Pro software (Molecular Devices, USA). All assays were performed at pH 6.8. Inhibition percentages were calculated from the formula% Inhibition = 100 − (Abs(sample)/Abs(control)) × 100where “A” is the absorbance of the “test well” as well as the “control”. Thiourea was used as a standard.

S. aureus = assay: Antibacterial activity, agar well diffusion method; assay type: cell-based, Staphylococcus aureus; details: Staphylococcus aureus; abstract; read-out: MIC against S. aur
Procedure: The agar well diffusion method evaluated every compound separately. Each sterile Petri plate was aseptically filled with 20 mL of the agar medium, which was then autoclaved at 120 °C to destroy any germs. The media then solidified at room temperature. Various bacterial strains were put to agar plates using a sterile cotton swab. A 6 mm-diameter well was drilled using a sterilized cork borer. […] In a well with a diameter of 6 mm, 20 mL of the standard drug and isolated compounds were added. At 37 °C, the test plates were incubated for 24 hours. The test plates were incubated at 37 °C for 24 hours. The standard disc containing 50 mg of ciprofloxacin served as a positive control for antibacterial activity, and DMSO served as a negative control.

H.pylori = assay: Antibacterial activity, agar well diffusion method; assay type: cell-based, Helicobacter pylori; details: Helicobacter pylori; abstract; read-out: MIC against H. pylori
Source text: Antibacterial activity of the isolated and synthesized compounds was perform using agar well method. Three bacterial strains selected for this experiment were H.pylori, B. subtilis and S. aureus, for all of three strains compounds show good to mederate inhibition. […] The presence of H. pylori in the stomach has been associated with a range of gastric disorders, including peptic ulcers, gastritis, and an increased risk of gastric cancer. The bacterium's ability to manipulate the gastric environment through urease activity underscores its role in the development and progression of these conditions. Different studies have targeted H. pylori and its urease activity as potential avenues for therapeutic intervention and disease management (Fig. 4).
The agar well diffusion method evaluated every compound separately. Each sterile Petri plate was aseptically filled with 20 mL of the agar medium, which was then […]. The media then solidified at room temperature. Various bacterial strains were put to agar plates using a sterile cotton swab. A 6 mm-diameter well was drilled using a sterilized cork borer. Each isolated compound was dissolved in 1 mL of a 20% DMSO solution. In a well with a diameter of 6 mm, […] of the standard drug and isolated compounds were added. […] The zone of inhibition was graphed and quantified in millimeters.[20]

[2] = poisoned medium, 25 ± 2 °C, seven days
[3] = HepG2, MTT, 48 hours, at 200 μg

Structure (SMILES)	MIC (Alternaria alternata; [2]) [µM]	MIC (Aspergillus niger; [2]) [µM]	MIC (Aspergillus fumigatus; [2]) [µM]	MIC (Penicillium citrii; [2]) [µM]	IC50 (Jack bean urease) [µM]	inhibition at 500 µM (Jack bean urease) [%]	other results
Cc1cc(O)c2c(c1)C(=O)c1cc(O)cc(O)c1C2=O [Emodin]	0.01 ± 0.006 (≈ 2.7 ng/mL)	0.04 ± 0.003 (≈ 10.8 ng/mL)	0.035 ± 0.005 (≈ 9.46 ng/mL)	0.045 ± 0.005 (≈ 12.2 ng/mL)			
CC[C@H](CC[C@@H](C)[C@H]1CC[C@H]2[C@@H]3C[C@H](O)C4=C[C@@H](O)CC[C@]4(C)[C@H]3CC[C@]12C)C(C)C [Compound 10, Stigmast-4-en-3β,6α-diol]					6.68 ± 0.11	76.6	viability at 200 µg [1, 3]: 14.5 ± 0.68%; IC50 [1]: 7.8 µM
CC[C@H](CC[C@@H](C)[C@H]1CC[C@H]2[C@@H]3CC(=O)C4=CC(=O)CC[C@]4(C)[C@H]3CC[C@]12C)C(C)C [Compound 9, Stigmast-4-en-3,6-dione]						13.4	IC50 [1]: 7.8 µM
O=c1cc(-c2ccc(O)c(O)c2)oc2cc(O)cc(O)c12 [Compound 2, Luteolin]	0.043 ± 0.002 (≈ 12.3 ng/mL)	0.021 ± 0.001 (≈ 6.01 ng/mL)	0.01 ± 0.004 (≈ 2.86 ng/mL)	0.05 ± 0.002 (≈ 14.3 ng/mL)	1.3 ± 0.28	82	viability at 200 µg [1, 3]: 82.5 ± 4.31%
COc1cc(O)cc2oc(-c3ccc(O)c(O)c3)cc(=O)c12 [Compound 4, Luteolin-5-methyl ether]					3.87 ± 0.24	82.7	viability at 200 µg [1, 3]: 90.5 ± 2.15%
C=C(CCC(=CC)C(C)C)C1CCC2C3=CCC4C(C)C(O)CCC4(C)C3CCC12C (stereo not shown) [Compound 1, 21-methylene-24-ethylidene lophenol]					1.02 ± 0.35	82.3	MIC (S. aureus): 0.12 µg/mL (≈ 0.283 µM); mode of inhibition, Lineweaver–Burk plot (Jack bean urease; urea and compound 0–20 μM): competitive; MIC (H.pylori): 0.28 µg/mL (≈ 0.659 µM)
Cc1cc(O)c2c(c1)C(=O)c1cc(O)cc(O)c1C2=O [Compound 11, Emodin]					5.2 ± 0.14	72.9	viability at 200 µg [1, 3]: 83.89 ± 0.73%
O=c1cc(-c2ccc(O)c(O)c2)oc2cc(O)c([C@@H]3O[C@H](CO)[C@@H](O)[C@H](O)[C@H]3O)c(O)c12 [Luteolin-6-C-β-D-glucopyranoside]	0.06 ± 0.007 (≈ 26.9 ng/mL)	0.0072 ± 0.0003 (≈ 3.23 ng/mL)	0.25 ± 0.003 (≈ 112 ng/mL)	0.022 ± 0.003 (≈ 9.86 ng/mL)			
O=c1cc(-c2ccc(O)cc2)oc2c([C@@H]3O[C@H](CO)[C@@H](O)[C@H](O)[C@H]3O)c(O)cc(O)c12 [Compound 5, Apigenin-8-C-β-D-glucopyranoside]					4.73 ± 0.22	77.5	viability at 200 µg [1]: 94.7 ± 7.4%
COc1cc(O)c2c(c1)C(=O)c1cc(C)cc(O)c1C2=O [Physcion]	0.015 ± 0.005 (≈ 4.26 ng/mL)	0.09 ± 0.009 (≈ 25.6 ng/mL)	0.035 ± 0.006 (≈ 9.95 ng/mL)	0.03 ± 0.005 (≈ 8.53 ng/mL)			
NC(N)=S [thiourea, reference compound]							IC50 (Jack bean urease; pH 6.8, read-out: IC50 ± SEM, urease): 18.61 ± 0.11 µM; IC50 (Jack bean urease; read-out: IC50, urease (conclusions)): 18.61 ± 0.11 µM; % Inhibition of urease (Jack bean urease; test compounds each 0.5 mM, pH 6.8): 86.73%
CCCCCCCCCCCCCCCCCCC(=O)O [Compound 14, Nonadecanoic acid]					1.95 ± 0.31	80.4	
O=c1cc(-c2ccc(O)cc2)oc2c([C@@H]3O[C@H](CO)[C@@H](O)[C@H](O)[C@H]3O)c(O)cc(O)c12 [Apigenin-8-C-β-D-glucopyranoside]							MIC (Alternaria alternata): 0.025 ± 0.007 µM (≈ 10.8 ng/mL); MIC (Aspergillus niger): 0.015 ± 0.001 µM (≈ 6.49 ng/mL); MIC (Aspergillus fumigatus): 0.01 ± 0.006 µM (≈ 4.32 ng/mL); MIC (Penicillium citrii): 0.01 ± 0.006 µM (≈ 4.32 ng/mL)
Cc1cc(O)c2c(c1)C(=O)c1cccc(O)c1C2=O [Chrysophanol]	0.012 ± 0.003 (≈ 3.05 ng/mL)	0.03 ± 0.002 (≈ 7.63 ng/mL)	0.06 ± 0.001 (≈ 15.3 ng/mL)	0.05 ± 0.001 (≈ 12.7 ng/mL)			
CC[C@H](CC[C@@H](C)[C@H]1CC[C@H]2[C@@H]3CC=C4C[C@@H](O)CC[C@]4(C)[C@H]3CC[C@]12C)C(C)C [Compound 15, β-Sitosterol]					2.78 ± 0.24	80	viability at 200 µg [1]: 94.4 ± 4.42%
COc1cc(O)c2c(c1)C(=O)c1cc(C)cc(O)c1C2=O [Compound 13, Physcion]					6.24 ± 0.3	63.5	viability at 200 µg [1]: 87.4 ± 2.55%
CCC(CCC(C)C1CCC2C3CC(=O)C4=CC(=O)CCC4(C)C3CCC12C)C(C)C (stereo not shown) [Stigmast-4-en-3,6-dione]	0.15 ± 0.005 (≈ 64 ng/mL)	0.02 ± 0.006 (≈ 8.53 ng/mL)	0.125 ± 0.0015 (≈ 53.3 ng/mL)	0.04 ± 0.003 (≈ 17.1 ng/mL)			
Cc1cc(O)c2c(c1)C(=O)c1cccc(O)c1C2=O [Compound 12, Chrysophanol]					5.92 ± 0.25	78.2	viability at 200 µg [1, 3]: 59.3 ± 2.2%
CC[C@H](CC[C@@H](C)C1CCC2C3CC=C4C[C@@H](O[C@@H]5O[C@H](CO)[C@@H](O)[C@H](O)[C@H]5O)CC[C@]4(C)C3CC[C@@]21C)C(C)C (stereo partly drawn) [Compound 16, β-Sitosterol 3-O-β-D-glucopyranoside]						19.5	viability at 200 µg [1, 3]: 96.4 ± 2.2%
CCC(CCC(C)C1CCC2C3CC(O)C4=CC(=O)CCC4(C)C3CCC12C)C(C)C (stereo not shown) [Synthesized compound]						69	IC50 (Jack bean urease; read-out: IC50 ± SEM, urease, pH 6.8): 8.03 ± 0.19 µM
CC[C@H](CC[C@@H](C)[C@H]1CC[C@H]2[C@@H]3C[C@H](O)C4=C[C@@H](O)CC[C@]4(C)[C@H]3CC[C@]12C)C(C)C [Stigmast-4-en-3β,6α-diol]	0.045 ± 0.003 (≈ 19.4 ng/mL)	0.015 ± 0.005 (≈ 6.46 ng/mL)	0.01 ± 0.006 (≈ 4.31 ng/mL)	0.2 ± 0.03 (≈ 86.1 ng/mL)			
O=c1cc(-c2ccc(O)c(O)c2)oc2cc(O)ccc12 [Compound 3, 3′,4′,7-Trihydroxyflavone]	0.056 ± 0.001 (≈ 15.1 ng/mL)	0.032 ± 0.005 (≈ 8.65 ng/mL)	0.013 ± 0.003 (≈ 3.51 ng/mL)	0.016 ± 0.01 (≈ 4.32 ng/mL)			
O=c1cc(-c2ccc(O)c(O)c2)oc2c([C@@H]3O[C@H](CO)[C@@H](O)[C@H](O)[C@H]3O)c(O)cc(O)c12 [Compound 6, Luteolin-8-C-β-D-glucopyranoside]					5.03 ± 0.12	71.5	viability at 200 µg [1, 3]: 89.2 ± 2.5%
COc1cc(O)cc2oc(-c3ccc(O)c(O)c3)cc(=O)c12 [Luteolin-5-methyl ether]	0.03 ± 0.006 (≈ 9.01 ng/mL)	0.01 ± 0.006 (≈ 3 ng/mL)	0.04 ± 0.002 (≈ 12 ng/mL)	0.06 ± 0.004 (≈ 18 ng/mL)			
O=c1cc(-c2ccc(O)c(O)c2)oc2c([C@@H]3O[C@H](CO)[C@@H](O)[C@H](O)[C@H]3O)c(O)cc(O)c12 [Luteolin-8-C-β-D-glucopyranoside]							MIC (Alternaria alternata): 0.021 ± 0.005 µM (≈ 9.42 ng/mL); MIC (Aspergillus niger): 0.013 ± 0.006 µM (≈ 5.83 ng/mL); MIC (Aspergillus fumigatus): 0.014 ± 0.005 µM (≈ 6.28 ng/mL); MIC (Penicillium citrii): 0.015 ± 0.008 µM (≈ 6.73 ng/mL)
